Reference: patent US20250011330A1, “Imidazo[1,2- a]pyrazine and Imidazo[1,2- a]pyridine Based Tyrosyl-DNA Phosphodiesterase I (TDP1) Inhibitors” (The USA, As Represented by the Secretary, Department of …, priority 2021, published 2025)
Read-outs that look alike come from different tables or passages of the source.

Tests used:
TDP1 [1] = biological target: T1, TDP1 (Homo sapiens (Human), UniProt Q9NUW8); test: TDP1 gel-based in vitro fluorescence assay; format: biochemical
TDP1 [2] = biological target: T1, TDP1; test: Degradation assay (western blotting) of TDP1 in HCT116 and HEK293 cells; format: cell-based; conditions: list in description
Method: The degradation effect of the TDP1 inhibitors on TDP1 in human colon cancer cell line HCT116 and embryonic kidney cell line HEK293 were studied. Cells were first seeded in a 6-well plate until 60-80% confluency and then incubated with a serial dilution of TDP1 inhibitors at the range of 25-200 μM for 24-72 h at 37° C. […] Samples were then sonicated at 30% for 10 s and centrifuged for 15 min at 15000 rpm at 4 Celsius. Supernatant were collected and the concentration of total protein were measured by BCA Protein Assay Kit according to its protocols. Four micrograms of total protein for each sample were loaded and TDP1 level were conducted by western blotting.

TOP1 = TOP1 (Homo sapiens (Human), UniProt P11387); test: Degradation of TOP1 in cells (western blotting); format: cell-based; conditions: list in description
TDP2 [3] = biological target: T2, TDP2 (Homo sapiens (Human), UniProt O95551); test: TDP2 degrading activity as stated in the description; conditions: list in description
T2 sequence (O95551 whole entry, species assumed): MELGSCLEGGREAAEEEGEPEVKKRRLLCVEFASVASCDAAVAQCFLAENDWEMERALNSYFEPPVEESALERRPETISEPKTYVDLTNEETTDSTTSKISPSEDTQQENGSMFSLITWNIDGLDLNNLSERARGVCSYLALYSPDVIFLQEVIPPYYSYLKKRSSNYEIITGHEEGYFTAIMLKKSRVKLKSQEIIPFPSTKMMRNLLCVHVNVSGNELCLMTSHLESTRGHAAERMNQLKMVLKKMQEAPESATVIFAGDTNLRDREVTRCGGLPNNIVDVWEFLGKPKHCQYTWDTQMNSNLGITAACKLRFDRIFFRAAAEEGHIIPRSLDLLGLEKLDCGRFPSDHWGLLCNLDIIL

TDP2 [4] = biological target: T2, TDP2; test: gel-based TDP2 fluorescence assay in vitro; format: biochemical; conditions: read-out: TDP2 IC50
TDP1 [5] = biological target: T1, TDP1; test: gel-based TDP1 fluorescence assay of unpurified oxime libraries at 100 μM; format: biochemical; conditions: 100 μM in DMSO, oximes without purification
Method: The oximes were evaluated by gel-based TDP1 fluorescence assay in a concentration of 100 μM in DMSO. The fluorescence of DMSO blank vial was set as 0 and the fluorescence for the reference without TDP1 was set as 100%. Preparation: A mixture of aminooxy-containing 105 or 106 (10 μL, 30 mM in DMSO), aldehydes M1-T12 (10 μL, 30 mM in DMSO) and acetic acid (10 μL, 150 mM in DMSO) were agitated at room temperature overnight. Oximes 5-M1-T12 or 6-M1-T12 (30 uL, 10 mM in DMSO) were afforded.
Two set of oximes 105-X and 106-Y (XZ700-M1-T12, XZ699-M1-T12) ([…], 10 mM in DMSO) were prepared about 240 each starting from aminooxy-containing 105 (XZ700) or 106 (XZ699) based on the following method. A mixture of aminooxy-containing 105 or 106 (10 μL, 30 mM in DMSO) with about 240 aldehydes M1-T12 (10 μL, 30 mM in DMSO) (Table 4) separately in the present of acetic acid (10 μL, 150 mM in DMSO) were agitated at room temperature overnight in three 96-well plates in parallel. The formed oximes 105-M1 to 105-T12 and 106-M1 to 106-T12 (30 uL, 10 mM in DMSO) were diluted to 100 μM in DMSO and evaluated by gel-based TDP1 fluorescence assay. The fluorescence of the gel band of DMSO blank vial was set as 0 and the fluorescence for the reference gel band without TDP1 was set as 100%. […] Among them, with same aldehyde structures D1 and P3, both oximes 105-series (105-D1, 105-P3) and 106-series (106-D1, 106-P3) show great (>90%) TDP1 inhibition. […] To confirm the inhibitions, we have further evaluated the purified lead oximes by HPLC. (Table 7; FIG. 9)

[6] = test system: human colon cancer cell line HCT116; test: Synergistic effect with camptothecin (CPT) based on cell viability; conditions: for synergy with camptothecin: list in description
Method: The synergistic effects of the TDP1 inhibitors with CPT were tested in human colon cancer cell line HCT116 based on cell viability (Table 3, FIGS. 2-5). Cells were first seeded in a 384-well black-clear plate until 30% confluency and then incubated with a serial dilution of CPT at the range of 0-100 nM in the present or the absence of TDP1 inhibitors for 72 h at 37° C. Viable cell numbers were counted from the brightfield images taken by Biotek Cytation 5 (FIGS. 2-3). Fractional affect (Fa) and combination index (Ci) were analyzed with CompuSyn software. Synergistic scores of each TDP1 inhibitors were calculated and collected based on the data analysis from SynergyFinder (FIG. 4). […]

TDP1 [7] = biological target: T1, TDP1; test: Lineweaver-Burk plot analysis of TDP1 inhibition; format: biochemical
Method: Samples were then analyzed with a 20% DNA sequencing gel and exposed to a PhosphorImager screen for further analysis by Typhoon FLA 9500 (GE Healthcare). The Linearweaver-Burk plots (FIG. 1) were generated based on the substrate concentrations and corresponding reaction velocities.

[8] = Table 8, lead compounds with different linkers, read-out: TDP1 IC50
[9] = Table 8, ratio of IC50 TDP2 to TDP1
[10] = Table 8, lead compounds with different linkers
[11] = purified oximes and SMM leads, read-out: TDP1 IC50

T1 sequence (Q9NUW8 whole entry): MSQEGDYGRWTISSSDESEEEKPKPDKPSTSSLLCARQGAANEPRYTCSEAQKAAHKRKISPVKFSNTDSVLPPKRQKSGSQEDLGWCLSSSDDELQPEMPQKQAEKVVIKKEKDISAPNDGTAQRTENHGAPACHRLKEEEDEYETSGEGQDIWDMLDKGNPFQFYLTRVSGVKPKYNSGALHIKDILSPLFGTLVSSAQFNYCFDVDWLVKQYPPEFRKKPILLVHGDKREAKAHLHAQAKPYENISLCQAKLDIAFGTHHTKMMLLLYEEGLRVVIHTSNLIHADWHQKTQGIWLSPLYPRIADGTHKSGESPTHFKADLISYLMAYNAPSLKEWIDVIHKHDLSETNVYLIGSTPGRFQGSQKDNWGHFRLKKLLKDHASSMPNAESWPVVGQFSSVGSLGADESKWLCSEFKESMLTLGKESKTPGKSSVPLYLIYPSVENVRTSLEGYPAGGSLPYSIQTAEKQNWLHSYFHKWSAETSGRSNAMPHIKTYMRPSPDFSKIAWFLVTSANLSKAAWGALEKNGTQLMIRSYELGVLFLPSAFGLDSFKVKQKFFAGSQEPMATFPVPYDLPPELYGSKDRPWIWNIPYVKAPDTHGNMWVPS

Molecule	IC50 (TDP1 [1]; [8]) [µM]	TDP1 degrading activity (TDP1 [2])	TOP1 degrading activity (TOP1)	TDP2 degrading activity (TDP2 [3])	IC50 (TDP2 [4]; [10]) [µM]	inhibition at 100 µM (TDP1 [5]) [%]	synergy with camptothecin [6]	further results
N#Cc1ccc(-c2ccc(Cn3cc(-c4ccn5c(Nc6ccc(C(=O)O)cc6)c(-c6ccccc6)nc5c4)nn3)cc2)nc1 [XZ722, 4-((7-(1-(4-(5-Cyanopyridin-2-yl)benzyl)-1H-1,2,3-triazol-4-yl)-2-phenylimidazo[1,2-a]pyridin-3-yl)amino)benzoic acid]	5.95 ± 1.25	exhibit TDP1 degrading activity	exhibit TOP1 degrading activity	exhibit TDP2 degrading activity	18 ± 1.2			FC (fold change) (TDP1 [1]; [9]): 3
Cc1cncc(Oc2ccc(C=NOCc3ccc4nc(-c5ccccc5)c(Nc5ccc(C(=O)O)cc5)n4c3)cc2)n1 [Compound 105-P3, 4-((6-((((4-((6-methylpyrazin-2-yl)oxy)benzylidene)amino)oxy)methyl)-2-phenylimidazo[1,2-a]pyridin-3-yl)amino)benzoic acid]						> 90		IC50 (TDP1 [1]; [11]): > 100 µM
N#Cc1ccc(-c2ccc(Cn3cc(COc4ccc(-c5nc6cc(-c7ccccc7)ccn6c5Nc5ccc(C(=O)O)cc5)cc4)nn3)cc2)nc1 [XZ720, 4-((2-(4-((1-(4-(5-Cyanopyridin-2-yl)benzyl)-1H-1,2,3-triazol-4-yl)methoxy)phenyl)-7-phenylimidazo[1,2-a]pyridin-3-yl)amino)benzoic acid]	23.5 ± 3.2	exhibit TDP1 degrading activity	exhibit TOP1 degrading activity	exhibit TDP2 degrading activity	32.9 ± 2.7		exhibit synergy with camptothecin	FC (fold change) (TDP1 [1]; [9]): 1
Cc1ncsc1-c1ccc(CNC(=O)[C@@H]2C[C@@H](O)CN2C(=O)[C@@H](NC(=O)COCCOCCn2cc(COc3ccc(-c4nc5cc(-c6ccccc6)ccn5c4Nc4ccc(C(=O)O)cc4)cc3)nn2)C(C)(C)C)cc1 [XZ679, 4-((2-(4-((1-(2-(2-(2-(((S)-1-((2S,4R)-4-Hydroxy-2-((4-(4-methylthiazol-5-yl)benzyl)carbamoyl)pyrrolidin-1-yl)-3,3-dimethyl-1-oxobutan-2-yl)amino)-2-oxoethoxy)ethoxy)ethyl)-1H-1,2,3-triazol-4-yl)methoxy)phenyl)-7-phenylimidazo[1,2-a]pyridin-3-yl)amino)benzoic acid]		exhibit TDP1 degrading activity	exhibit TOP1 degrading activity					IC50 (TDP2 [4]; Table 10, PROTACs): > 100 µM
O=C(O)c1ccc(Nc2c(-c3ccccc3)nc3cnccn23)cc1C(=O)O [Compound 10a, 4-((2-Phenylimidazo[1,2-a]pyrazin-3-yl)amino)phthalic acid]								IC50 (TDP1 [1]; Table 2, imidazo[1,2-a]pyrazin-3-amine core, read-out: IC50): 45.5 µM; IC50 (TDP1 [1]; Table 3, gel based TDP1 fluorescence assay, read-out: TDP1 IC50): > 100 µM; IC50 (TDP1 [1]; Table 3, values in brackets (footnote vi), read-out: TDP1 IC50 (μM), separated data from previous experiments): 45.5 µM; Synergy Score ([6]; with camptothecin (CPT), HCT116, 72 h, SynergyFinder 2.0): 4; Ki (TDP1 [7]; FIG. 1 legend, Lineweaver-Burk analysis, read-out: Inhibitory constant Ki): 110 ± 30.9 µM; Ki (TDP1 [7]; Table 3, constant of inhibition (FIG. 1), read-out: Ki): 110 ± 30.9 µM; IC50 (TDP2 [4]; Table 3): > 100 µM
Cc1cncc(Oc2ccc(C=NOCc3ccc(-c4nc5cc(-c6ccccc6)ccn5c4Nc4ccc(C(=O)O)cc4)cc3)cc2)n1 [Compound 106-P3, 4-((2-(4-((((4-((6-methylpyrazin-2-yl)oxy)benzylidene)amino)oxy)methyl)phenyl)-7-phenylimidazo[1,2-a]pyridin-3-yl)amino)benzoic acid]						> 90		
N#Cc1ccc(-c2ccc(C=NOCc3ccc4nc(-c5ccccc5)c(Nc5ccc(C(=O)O)cc5)n4c3)cc2)nc1 [Compound 105-D1, 4-((6-((((4-(5-cyanopyridin-2-yl)benzylidene)amino)oxy)methyl)-2-phenylimidazo[1,2-a]pyridin-3-yl)amino)benzoic acid]						> 90		
N#Cc1ccc(-c2ccc(/C=N/OCc3ccc(-c4nc5cc(-c6ccccc6)ccn5c4Nc4ccc(C(=O)O)cc4)cc3)cc2)nc1 [XZ701, (E)-4-((2-(4-((((4-(5-Cyanopyridin-2-yl)benzylidene)amino)oxy)methyl)phenyl)-7-phenylimidazo[1,2-a]pyridin-3-yl)amino)benzoic acid]	0.38 ± 0.06	exhibit TDP1 degrading activity	exhibit TOP1 degrading activity	exhibit TDP2 degrading activity			exhibit synergy with camptothecin	selectivity against TDP1 than against TDP2 (TDP1 [1]): 74 fold; FC (fold change) (TDP1 [1]; Table 7, ratio of IC50 TDP2 to TDP1): 74; TDP1 inhibition relative to SMM lead 3 (TDP1 [1]; fold more than SMM lead 3): 10 fold; IC50 (TDP1 [1]; [11]): 0.38 ± 0.06 µM; IC50 (TDP2 [4]; Table 7, HPLC-purified oxime leads): 28.1 ± 8.9 µM
4-((2-(4-(2-((4-(5-((λ^2-Azaneylidene)-λ^3-methyl)pyridin-2-yl)phenyl)methoxy)ethyl)phenyl)-7-phenylimidazo[1,2-a]pyridin-3-yl)amino)benzoic acid [XZ726]			exhibit TOP1 degrading activity		> 100		exhibit synergy with camptothecin	
N#Cc1ccc(-c2ccc(Cn3cc(-c4ccc(-c5nc6cc(-c7ccccc7)ccn6c5Nc5ccc(C(=O)O)cc5)cc4)nn3)cc2)nc1 [XZ718, 4-((2-(4-(1-(4-(5-Cyanopyridin-2-yl)benzyl)-1H-1,2,3-triazol-4-yl)phenyl)-7-phenylimidazo[1,2-a]pyridin-3-yl)amino)benzoic acid]	3.1 ± 0.2	exhibit TDP1 degrading activity	exhibit TOP1 degrading activity	exhibit TDP2 degrading activity	25.9 ± 0.4		exhibit synergy with camptothecin	FC (fold change) (TDP1 [1]; [9]): 8
N#Cc1ccc(-c2ccc(C=NOCc3ccc(-c4nc5cc(-c6ccccc6)ccn5c4Nc4ccc(C(=O)O)cc4)cc3)cc2)nc1 [Compound 106-D1, 4-((2-(4-((((4-(5-cyanopyridin-2-yl)benzylidene)amino)oxy)methyl)phenyl)-7-phenylimidazo[1,2-a]pyridin-3-yl)amino)benzoic acid]						> 90		
O=C(O)c1ccc(Nc2c(-c3ccc(CON=Cc4ccc(N5CCCC5=O)cc4)cc3)nc3cc(-c4ccccc4)ccn23)cc1 [Compound 106-B7, 4-((2-(4-((((4-(2-oxopyrrolidin-1-yl)benzylidene)amino)oxy)methyl)phenyl)-7-phenylimidazo[1,2-a]pyridin-3-yl)amino)benzoic acid]								TDP1 inhibition (TDP1 [5]): good inhibition
